Experimental data reported in US20180186769A1, “6-AMINO-5-FLUORO-5-(FLUOROMETHYL)-2,3,4,5-TETRAHYDROPYRIDIN-2-YL-PHENYL-5-(METHOXY-D3)-PYRAZINE-2-CARBOXAMIDES AND FLUORINATED DERIVATIVES THEREOF AS BACE1 INHIBITORS” (H. Lundbeck A/S, priority 2016, published 2018).
Where two headings read alike, the source gives them in different places.

How the values were obtained:
[1] = Clearance in microsomes, human; assay type: in vitro ADME; settings: 1 microM, read-out: CLint, Human (L/h/kg) ± SD (converted)
Description: (§1) Deuterated compounds were compared to their non-deuterated parent counterparts to determine the impact of deuteration on clearance results

[2] = Clearance in microsomes, dog; assay type: in vitro ADME; settings: 1 microM, read-out: CLint, Dog (L/h/kg) ± SD (converted)
Description: as §1

[3] = Clearance in hepatocytes, human; assay type: in vitro ADME; settings: read-out: CLint, Human (L/h/kg) ± SD (converted)
Description: as §1

[4] = Bioanalysis of brain and plasma samples (UPLC-MS/MS); assay type: in vivo, Sprague Dawley rats; settings: male, po, rat, p.o.; for Kp at 0.5 h / Kp at 1 h / Kp at 3 h / Kp at 6 h / Kp at 12 h: read-out: Brain/Plasma ratio
Procedure: Young adult Male Sprague Dawley rats of approximately 250 g weight were purchased from Charles River and received vehicle (2.5% HP betaCD+1M MeSO4, pH 2.5) or 0-40 mg/kg of test compounds (dissolved in vehicle) by oral gavage (p.o). The compounds are dosed at a volume of 5 ml/kg. Cohorts of 5-10 animals were established for each treatment condition.
Studies were set up as acute dose response treatment studies were samples were taken at T=180 minutes after initial dosing, or as 12 h or 24 h timecourse treatment studies. At the end of the test period, the animals were stunned and decapitated with a guillotine. Trunk-blood was sampled in EDTA coated tubes after decapitation of the animal. The blood was centrifuged at 2200G at 4° C. for 15 minutes and the plasma was collected and frozen at −80° C. The blood was aliquoted for Aβ ELISA and DMPK analysis. Immediately following sacrifice, the brain was extracted and split into 2 halves. The left half was dissected; with the front forebrain taken for Aβ ELISA and the remainder used for DMPK analysis. These samples were also snap frozen on dry ice and stored at −80° C. until use for analysis. The right hemibrains were snap frozen on dry ice and stored at −80° C. for independent confirmatory Aβ ELISA evalution.
TC was determined in plasma and brain homogenate using UltraPerformance LC® (UPLC®) chromatography followed by tandem-MS (MS/MS) detection.
Brain homogenate was prepared by homogenizing the brain 1:4 (v/v) with water:2-propanol:DMSO (50:30:20 v/v/v) followed by centrifugation and collection of the supernatant. Calibration standards and QC samples were prepared using a Hamilton robot. 150 μL of ISTD in acetonitrile (1 ng/mL ISTD) was added to 25 μL of calibration standards, QC samples and test samples (plasma and brain homogenate) using a Biomek robot. After centrifugation (6200 g, 4° C., 20 min) 100 μL supernatant from each sample was transferred to a new plate and mixed with 100 μL water with 0.1% formic acid using a Biomek robot (method file InVivo transfer). After a quick centrifugation (6200 g, 4° C., 5 min) the samples were placed in the auto-sampler.
MS/MS detection was done with an Applied Biosystems Sciex API 4000 instrument in positive-ion electrospray ionisation mode. TC and ISTD were detected at a parent>daughter mass to charge ratio (m/z). Nitrogen was used for the nebulizer and collision gases. The peak area correlated linearly with the plasma and brain concentration of the analytes in the range of 1.00-1000 ng/mL plasma and 5.00-5000 ng/g brain (corrected for dilution). If the plasma/brain sample drug concentration was above 1000 ng/mL or 5000 ng/g, the sample was diluted appropriately in blank plasma/blank brain homogenate before analysis.

[5] = Sprague Dawley, brain and plasma, 10 mg/kg
[6] = Sprague Dawley, brain, 10 mg/kg, read-out: Mean rat brain conc.
[7] = Sprague Dawley, plasma, 10 mg/kg, read-out: Mean rat plasma conc.
[8] = Sprague-Dawley, brain, 20 mg/kg, read-out: Mean rat brain conc.
[9] = Sprague-Dawley, brain, 40 mg/kg, read-out: Mean rat brain conc.
[10] = Sprague-Dawley, brain/plasma, 20 mg/kg
[11] = Sprague-Dawley, brain/plasma, 40 mg/kg
[12] = Sprague-Dawley, plasma, 20 mg/kg, read-out: Mean rat plasma conc.
[13] = Sprague-Dawley, plasma, 40 mg/kg, read-out: Mean rat plasma conc.

For `[2H]C([2H])([2H])Oc1cnc(C(=O)Nc2ccc(F)c([C@]3(C)CC[C@@](F)(CF)C(N)=N3)c2)cn1` [Example 1, N-(3-((2S,5S)-6-amino-5-fluoro-5-(fluoromethyl)-2-methyl-2,3,4,5-tetrahydropyridin-2-yl)-4-fluorophenyl)-5-(methoxy-d3)pyrazine-2-carboxamide], which CLint scaled at 1 µM [1] is on record?
The CLint scaled at 1 µM was 0.2 L/h/kg.

What about the CLint scaled at 1 µM [2] of the same compound?
Its CLint scaled at 1 µM is 5 L/h/kg.

What about the CLint scaled at 0.1 µM ([3]; 0.1 microM) of the same compound?
Its CLint scaled at 0.1 µM is less than 0.1 L/h/kg.

And the CLint scaled at 0.3 µM ([3]; 0.3 microM)?
The CLint scaled at 0.3 µM was less than 0.1 L/h/kg.

And the CLint scaled at 1 µM ([3]; 1 microM)?
Its CLint scaled at 1 µM is less than 0.1 L/h/kg.

And the Kp at 0.5 h [4, 5]?
Its Kp at 0.5 h is 1.8.

And the Kp at 1 h [4, 5]?
Its Kp at 1 h is 2.3.

And the Kp at 3 h [4, 5]?
The Kp at 3 h was 2.1.

What about the Kp at 6 h [4, 5] of the same compound?
Its Kp at 6 h is 1.9.

What about the Kp at 12 h [4, 5] of the same compound?
Its Kp at 12 h is 1.7.

And the concentration at 0.5 h [4, 6]?
Its concentration at 0.5 h is 550 ng/g.

And the concentration at 1 h [4, 6]?
The concentration at 1 h was 1100 ng/g.

What about the concentration at 3 h [4, 6] of the same compound?
Its concentration at 3 h is 700 ng/g.

And the concentration at 6 h [4, 6]?
The concentration at 6 h was 430 ng/g.

And the concentration at 12 h [4, 6]?
The concentration at 12 h was 140 ng/g.

What about the concentration at 0.5 h [4, 7] of the same compound?
The concentration at 0.5 h was 300 ng/mL.

And the concentration at 1 h [4, 7]?
The concentration at 1 h was 500 ng/mL.

And the concentration at 3 h [4, 7]?
Its concentration at 3 h is 340 ng/mL.

What about the concentration at 6 h [4, 7] of the same compound?
The concentration at 6 h was 230 ng/mL.

What about the concentration at 12 h [4, 7] of the same compound?
Its concentration at 12 h is 79 ng/mL.

And the concentration at 0.5 h [4, 8]?
The concentration at 0.5 h was 1530 ng/g.

And the concentration at 1 h [4, 8]?
Its concentration at 1 h is 2380 ng/g.

And the concentration at 3 h [4, 8]?
Its concentration at 3 h is 1960 ng/g.

And the concentration at 6 h [4, 8]?
Its concentration at 6 h is 1540 ng/g.

What about the concentration at 12 h [4, 8] of the same compound?
Its concentration at 12 h is 438 ng/g.

What about the concentration at 0.5 h [4, 9] of the same compound?
The concentration at 0.5 h was 2500 ng/g.

What about the concentration at 1 h [4, 9] of the same compound?
Its concentration at 1 h is 2800 ng/g.

What about the concentration at 3 h [4, 9] of the same compound?
The concentration at 3 h was 3000 ng/g.

And the concentration at 6 h [4, 9]?
The concentration at 6 h was 3700 ng/g.

What about the concentration at 12 h [4, 9] of the same compound?
The concentration at 12 h was 1100 ng/g.

And the Kp at 0.5 h [4, 10]?
Its Kp at 0.5 h is 2.9.

What about the Kp at 1 h [4, 10] of the same compound?
The Kp at 1 h was 3.9.

What about the Kp at 3 h [4, 10] of the same compound?
The Kp at 3 h was 3.4.

What about the Kp at 6 h [4, 10] of the same compound?
Its Kp at 6 h is 3.2.

And the Kp at 12 h [4, 10]?
The Kp at 12 h was 2.7.

And the Kp at 0.5 h [4, 11]?
The Kp at 0.5 h was 2.8.

And the Kp at 1 h [4, 11]?
Its Kp at 1 h is 3.1.

What about the Kp at 3 h [4, 11] of the same compound?
The Kp at 3 h was 2.8.

And the Kp at 6 h [4, 11]?
The Kp at 6 h was 3.

And the Kp at 12 h [4, 11]?
Its Kp at 12 h is 2.5.

What about the concentration at 0.5 h [4, 12] of the same compound?
The concentration at 0.5 h was 532 ng/mL.

And the concentration at 1 h [4, 12]?
Its concentration at 1 h is 614 ng/mL.

And the concentration at 3 h [4, 12]?
Its concentration at 3 h is 572 ng/mL.

What about the concentration at 6 h [4, 12] of the same compound?
The concentration at 6 h was 477 ng/mL.

And the concentration at 12 h [4, 12]?
The concentration at 12 h was 159 ng/mL.

What about the concentration at 0.5 h [4, 13] of the same compound?
Its concentration at 0.5 h is 740 ng/mL.

And the concentration at 1 h [4, 13]?
The concentration at 1 h was 880 ng/mL.

And the concentration at 3 h [4, 13]?
Its concentration at 3 h is 1100 ng/mL.

And the concentration at 6 h [4, 13]?
The concentration at 6 h was 1200 ng/mL.

What about the concentration at 12 h [4, 13] of the same compound?
Its concentration at 12 h is 410 ng/mL.
